Results taken from ChEMBL document CHEMBL4699480 (J Med Chem, 2020).
The source made the active and inactive calls. The rule behind the calls is not given here.

How the values were obtained:
[1] = Synergistic cytotoxicity in human PD002 cells assessed as FIC at 0.2 uM incubated for 72 hrs in presence of 0.031 uM paclitaxel by IncuCyte live cell analysis imaging system based assay; type: functional
[2] = Synergistic cytotoxicity in human PD002 cells assessed as FIC at 0.2 uM incubated for 72 hrs in presence of 0.020 uM paclitaxel by IncuCyte live cell analysis imaging system based assay; type: functional
[3] = Synergistic cytotoxicity in human PD002 cells assessed as FIC at 2 uM incubated for 72 hrs in presence of 0.039 uM paclitaxel by IncuCyte live cell analysis imaging system based assay; type: functional
[4] = Cytotoxicity in mouse L1210 cells assessed as reduction in cell viability incubated for 72 hrs by MTT assay; details: L1210, 72 h
[5] = molecular target: T1, UDP-N-acetylglucosamine--dolichyl-phosphate N-acetylglucosaminephosphotransferase (Homo sapiens) (UniProt Q9H3H5); experiment: Inhibition of DPAGT1 in human SiHa cells assessed as reduction in snail protein expression incubated for 24 hrs by Western blot assay; type: cell-based
T1 sequence (whole entry): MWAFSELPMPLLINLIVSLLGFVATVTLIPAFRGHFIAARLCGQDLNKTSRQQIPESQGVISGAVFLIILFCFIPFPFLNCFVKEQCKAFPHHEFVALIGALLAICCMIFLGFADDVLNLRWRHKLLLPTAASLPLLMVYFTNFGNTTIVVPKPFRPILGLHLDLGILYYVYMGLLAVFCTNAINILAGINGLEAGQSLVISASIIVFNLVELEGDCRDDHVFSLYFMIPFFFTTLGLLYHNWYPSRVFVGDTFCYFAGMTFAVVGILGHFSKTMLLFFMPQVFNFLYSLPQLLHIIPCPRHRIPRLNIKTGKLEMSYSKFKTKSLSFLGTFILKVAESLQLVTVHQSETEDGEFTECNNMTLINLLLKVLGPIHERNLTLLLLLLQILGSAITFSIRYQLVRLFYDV

[6] = test system: HCT-116; experiment: Inhibition of DPAGT1 protein expression in human HCT-116 cells at 0.1 to 20 uM incubated for 72 hrs by immunofluorescence assay; details: dose microM 0.1-20, time 72.0 hrs
[7] = test system: PD002; experiment: Inhibition of E-cadherin protein expression in human PD002 cells at 0 to 2 uM incubated for 24 hrs by Western blot analysis; type: functional, cell-based; details: dose microM 0-2, time […]
[8] = test system: CAPAN-1; experiment: Cytotoxicity in human CAPAN-1 cells assessed as reduction in cell viability incubated for 72 hrs by MTT assay; type: functional, cell-based; details: CAPAN-1, 72 h
[9] = test system: PD002; experiment: Inhibition of DPAGT1 mRNA expression in human PD002 cells at 0 to 10 uM incubated for 24 hrs by RT-qPCR analysis; type: functional, cell-based; details: dose microM 0-10, time […]
[10] = molecular target: T1, UDP-N-acetylglucosamine--dolichyl-phosphate N-acetylglucosaminephosphotransferase (Homo sapiens); experiment: Inhibition of DPAGT1 in human PANC-1 cells assessed as reduction in snail protein expression incubated for 24 hrs by immunofluorescence staining assay; type: cell-based
[11] = molecular target: T2, UDP-N-acetylglucosamine--dolichyl-phosphate N-acetylglucosaminephosphotransferase (Homo sapiens, UniProt Q9H3H5); experiment: Inhibition of human DPAGT1 expressed in HEK293 (Expi293) cells incubated for 2 hrs using UDP-GlcN-Cg-FITC and alpha-dihydroundecap-renyl phosphate by reversed-phase HPLC analysis; type: cell-based
T2 sequence (Q9H3H5 whole entry): T1 sequence (whole entry)

[12] = test system: PANC-1; experiment: Inhibition of DPAGT1 protein expression in human PANC-1 cells at 0.2 uM incubated for 24 hrs by Western blot analysis; type: functional, cell-based
[13] = test system: SiHa; experiment: Cytotoxicity in human SiHa cells assessed as reduction in cell viability incubated for 72 hrs by MTT assay; type: functional, cell-based
[14] = test system: HCT-116; experiment: Inhibition of DPAGT1 protein expression in human HCT-116 cells at 0.2 uM incubated for 24 hrs by Western blot analysis; type: functional, cell-based
[15] = Inhibition of Escherichia coli WecA incubated for 2 hrs using UDP-Glucosamine-C6-FITC substrate by reversed-phase HPLC analysis; design: species or system Escherichia coli BL21
[16] = test system: ASPC1; experiment: Cytotoxicity in human ASPC1 cells assessed as reduction in cell viability incubated for 72 hrs by MTT assay; type: functional, cell-based; details: ASPC1, 72 h
[17] = test system: CAPAN-1; experiment: Inhibition of DPAGT1 protein expression in human CAPAN-1 cells at 0.2 uM incubated for 24 hrs by Western blot analysis; type: functional, cell-based
[18] = test system: PD002; experiment: Inhibition of cell migration in human PD002 cells at 0.1 uM incubated for 0.5 hrs by crystal violet staining based Boyden chamber assay; type: functional
[19] = molecular target: T1, UDP-N-acetylglucosamine--dolichyl-phosphate N-acetylglucosaminephosphotransferase (Homo sapiens); experiment: Inhibition of DPAGT1 in human PD002 cells assessed as reduction in snail protein expression incubated for 24 hrs by Western blot analysis; type: cell-based
[20] = Synergistic cytotoxicity in human PD002 cells assessed as FIC at 0.1 uM incubated for 72 hrs in presence of […] paclitaxel by IncuCyte live cell analysis imaging system based assay; type: functional
[21] = molecular target: T1, UDP-N-acetylglucosamine--dolichyl-phosphate N-acetylglucosaminephosphotransferase (Homo sapiens); experiment: Inhibition of DPAGT1 in human PANC-1 cells assessed as reduction in snail protein expression incubated for 24 hrs by Western blot analysis; type: cell-based
[22] = test system: KB; experiment: Cytotoxicity in human KB cells assessed as reduction in cell viability incubated for 72 hrs by MTT assay; type: functional, cell-based
[23] = Synergistic cytotoxicity in human PD002 cells assessed as FIC at 0.1 uM incubated for 72 hrs in presence of 0.63 uM paclitaxel by IncuCyte live cell analysis imaging system based assay; type: functional
[24] = Inhibition of cell migration in human PD002 cells assessed as wound healing rate at 0.2 uM incubated for 24 hrs by wound healing assay (reference value: 63%); type: functional; design: scale not given: the % may be the effect or the level left
[25] = Synergistic cytotoxicity in human PD002 cells assessed as FIC at 2 uM incubated for 72 hrs in presence of 0.020 uM paclitaxel by IncuCyte live cell analysis imaging system based assay; type: functional
[26] = Inhibition of DPAGT1 protein expression in human HCT-116 cells assessed as DPAGT1 protein level at 0.1 to 20 uM incubated for 24 hrs by Western blot analysis; type: functional; design: scale not given: the % may be the effect or the level left; details: dose microM 0.1-20
[27] = Synergistic cytotoxicity in human PD002 cells assessed as FIC at 0.2 uM incubated for 72 hrs in presence of 0.0049 uM paclitaxel by IncuCyte live cell analysis imaging system based assay; type: functional
[28] = test system: HCT-116; experiment: Cytotoxicity in human HCT-116 cells assessed as reduction in cell viability incubated for 72 hrs by MTT assay; type: functional, cell-based; details: HCT-116, 72 h
[29] = test system: Vero; experiment: Cytotoxicity in African green monkey Vero cells assessed as reduction in cell viability incubated for 72 hrs by MTT assay; type: cell-based; details: Chlorocebus sabaeus
[30] = Inhibition of N-terminal His9-tagged Methanocaldococcus jannaschii DSM 2661 AglH incubated for 2 hrs using UDP-GlcN-Cg-FITC and alpha-dihydroundecap-renyl phosphate by reversed-phase HPLC analysis
[31] = test system: PANC-1; experiment: Inhibition of E-cadherin protein expression in human PANC-1 cells at 0 to 2 uM incubated for 24 hrs by Western blot analysis; type: functional, cell-based; details: dose microM 0-2, time […]
[32] = test system: HCT-116; experiment: Inhibition of E-cadherin protein expression in human HCT-116 cells at 0 to 2 uM incubated for 24 hrs by Western blot analysis; type: functional, cell-based; details: dose microM 0-2, time […]
[33] = Inhibition of cell proliferation in human PD002 cells incubated for 72 hrs; type: functional

SMILES: CO[C@H]1[C@@H](O)[C@H](n2ccc(=O)[nH]c2=O)O[C@@H]1[C@@H](O[C@H]1OC(C(=O)NCc2ccc(N3CCC(Oc4ccc(OC(F)(F)F)cc4)CC3)cc2)=C[C@H](O)[C@@H]1O)C(N)=O
- FIC [1]: 0.26
- FIC [2]: 0.021
- FIC [3]: 0.037
- IC50 [4]: > 50 µM
- inhibition [5]: Active
- inhibition [6]: inactive
- inhibition [7]: inactive
- IC50 [8]: 30 µM
- inhibition [9]: inactive
- inhibition [10]: Active
- IC50 [11]: 0.2 µM
- inhibition [12]: Active
- IC50 [13]: 15 µM
- inhibition [14]: Active
- IC50 [15]: 0.1 µM
- IC50 [16]: 25 µM
- inhibition [17]: Active
- inhibition [18]: Active
- inhibition [19]: Active
- FIC [20]: 0.13
- inhibition [21]: Active
- IC50 [22]: 35 µM
- FIC [23]: 0.5
- Activity [24]: 20%
- FIC [25]: 0.021
- Activity [26]: 20%
- FIC [27]: 0.0096
- IC50 [28]: 15 µM
- IC50 [29]: > 50 µM
- IC50 [30]: 0.15 µM
- inhibition [31]: inactive
- inhibition [32]: inactive
- inhibition (INH) [33]: 20%
